# Like-named read-outs stand apart in the source and are kept apart here. Marks after values point to notes of the source that are not given here.
# Legend:
# Format in all cases: in vivo
# [1] = test system: Plasmopara viticola; assay: Foliar fungal disease test on plants: Plasmopara viticola (Pv)
# Procedure: (§1) The compounds were tested against a variety of foliar fungal diseases of plants. The technique employed was as follows.
# (§2) The plants were grown in John Innes Potting Compost (No.1 or 2) in 4 cm diameter minipots. The test compounds were formulated either by bead milling with aqueous Dispersol T or as a solution in acetone or acetone/ethanol which was diluted to the required concentration immediately before use. For the foliage diseases, the formulations (100 ppm active ingredient except where otherwise indicated) were sprayed onto the foliage and applied to the roots of the plants in the soil. The sprays were applied to maximum retention and the root drenches to a final concentration equivalent to approximately 40 ppm a.i. in dry soil. Tween 20, to give a final concentration of 0.05%, was added when the sprays were applied to cereals.
# (§3) For most of the tests the compound was applied to the soil (roots) and to the foliage (by spraying) one or two days before the plant was inoculated with the disease. An exception was the test on Erysiphe graminis in which the plants were inoculated 24 hours before treatment. Foliar pathogens were applied by spray as spore suspensions onto the leaves of test plants. After inoculation, the plants were put into an appropriate environment to allow infection to proceed and then incubated until the disease was ready for assessment. The period between inoculation and assessment varied from four to fourteen days according to the disease and environment.
# (§4) The disease control vas recorded by the following grading:
# (§5) 3=trace-5% of disease on untreated plants
# (§6) 2=6-25% of disease on untreated plants
# (§7) 1=26-59% of disease on untreated plants
# (§8) 0=60-100% of disease on untreated plants
# [2] = test system: Phytophthora infestans lycopersici
# [3] = test system: Erysiphe graminis hordei; assay: Foliar fungal disease test on plants: Erysiphe graminis hordei (Egh)
# Procedure: as §1, §2, §3, §4, §5, §6, §7, §8
# Egh Erysiphe graminis hordei
# [4] = test system: Venturia inaequalis; assay: Foliar fungal disease test on plants: Venturia inaequalis (Vi)
# Procedure: as §1, §2, §3, §4, §5, §6, §7, §8
# [5] = test system: Puccinia recondita; assay: Foliar fungal disease test on plants: Puccinia recondita (Pr)
# Procedure: as §1, §2, §3, §4, §5, §6, §7, §8
# [6] = test system: Pyricularia oryzae
# [7] = 100 ppm active ingredient foliar spray plus root drench (approx. 40 ppm a.i. in dry soil), one or two days before inoculation
# [8] = 100 ppm active ingredient foliar spray plus root drench (approx. 40 ppm a.i. in dry soil), plants inoculated 24 hours before treatment
Structure (SMILES),"disease control grading, Pv (Plasmopara viticola) ([1]; 10 ppm foliar application only)","disease control grading, Pil (Phytophthora infestans lycopersici) ([2]; 10 ppm foliar application only)","disease control grading, Egh (Erysiphe graminis hordei) ([3]; 10 ppm foliar application only)","disease control grading, Vi (Venturia inaegualis) ([4]; 10 ppm foliar application only)","disease control grading, Pr (Puccinia recondita) ([5]; 10 ppm foliar application only)","disease control grading, Po (Pyricularia oryzae) ([6]; 10 ppm foliar application only)","disease control grading, Pv (Plasmopara viticola) [1, 7]","disease control grading, Pil (Phytophthora infestans lycopersici) [2, 7]","disease control grading, Egh (Erysiphe graminis hordei) [3, 8]","disease control grading, Vi (Venturia inaegualis) [4, 7]","disease control grading, Pr (Puccinia recondita) [5, 7]","disease control grading, Po (Pyricularia oryzae) [6, 7]"
CO/C=C(/C(=O)OC)c1ccccc1Oc1cc([S+]([O-])c2ccccc2)ncn1 (stereo not drawn) [2 of Table I],4^a (4=no disease),0^a (0=60-100% of disease on untreated plants),0^a (0=60-100% of disease on untreated plants),0^a (0=60-100% of disease on untreated plants),0^a (0=60-100% of disease on untreated plants),0^a (0=60-100% of disease on untreated plants),,,,,,
CO/C=C(/C(=O)OC)c1ccccc1Oc1cc(OCCc2ccccc2C#N)ncn1 [357 of Table I],,,,,,,4 (4=no disease),4 (4=no disease),4 (4=no disease),4 (4=no disease),4 (4=no disease),4 (4=no disease)
CO/C=C(/C(=O)OC)c1ccccc1Oc1cc(OS(=O)(=O)c2ccccc2C#N)ncn1 [381 of Table I],,,,,,,0 (0=60-100% of disease on untreated plants),0 (0=60-100% of disease on untreated plants),0 (0=60-100% of disease on untreated plants),0 (0=60-100% of disease on untreated plants),2 (2=6-25% of disease on untreated plants),2 (2=6-25% of disease on untreated plants)
CO/C=C(/C(=O)OC)c1ccccc1Oc1cc(OCCc2ccccc2F)ncn1 [366 of Table I],,,,,,,4 (4=no disease),4 (4=no disease),4 (4=no disease),4 (4=no disease),4 (4=no disease),4 (4=no disease)
CO/C=C(/C(=O)OC)c1ccccc1Oc1cc(OCCc2c(F)cccc2Cl)ncn1 [372 of Table I],,,,,,,4 (4=no disease),4 (4=no disease),4 (4=no disease),4 (4=no disease),4 (4=no disease),4 (4=no disease)
CO/C=C(/C(=O)OC)c1ccccc1Oc1cc(OCc2c(F)cccc2F)ncn1 [374 of Table I],,,,,,,4 (4=no disease),4 (4=no disease),4 (4=no disease),4 (4=no disease),4 (4=no disease),4 (4=no disease)
CO/C=C(/C(=O)OC)c1ccccc1Oc1cc(OCCc2c(F)cccc2F)ncn1 [370 of Table I],,,,,,,4 (4=no disease),4 (4=no disease),4 (4=no disease),4 (4=no disease),4 (4=no disease),4 (4=no disease)
CO/C=C(/C(=O)OC)c1ccccc1Oc1cc(OCCCc2ccccc2)ncn1 [360 of Table I],,,,,,,4 (4=no disease),4 (4=no disease),4 (4=no disease),4 (4=no disease),4 (4=no disease),4 (4=no disease)
CO/C=C(/C(=O)OC)c1ccccc1Oc1cc(S(=O)(=O)c2ccccc2)ncn1 [3 of Table I],,,,,,,4 (4=no disease),0 (0=60-100% of disease on untreated plants),0 (0=60-100% of disease on untreated plants),4 (4=no disease),3 (3=trace-5% of disease on untreated plants),2 (2=6-25% of disease on untreated plants)
